The source of these data is US9447038B2 (SANOFI, priority 2012, dated 2016).

In the assay the target is human CXCR3-A receptor (Homo sapiens (Human), UniProt P49682). Put plainly: 125I-CXCL10 competition radioligand binding assay.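 Also: One-hour incubation of membranes with tracer, bound radioligand separated by glass fibre filtration, IC50 derived from four-parameter nonlinear fit of competition curves.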 The following applies: displacement of 125I-CXCL10 from membranes of CHO cells expressing human recombinant CXCR3-A.
human CXCR3-A receptor, sequence (P49682 whole entry): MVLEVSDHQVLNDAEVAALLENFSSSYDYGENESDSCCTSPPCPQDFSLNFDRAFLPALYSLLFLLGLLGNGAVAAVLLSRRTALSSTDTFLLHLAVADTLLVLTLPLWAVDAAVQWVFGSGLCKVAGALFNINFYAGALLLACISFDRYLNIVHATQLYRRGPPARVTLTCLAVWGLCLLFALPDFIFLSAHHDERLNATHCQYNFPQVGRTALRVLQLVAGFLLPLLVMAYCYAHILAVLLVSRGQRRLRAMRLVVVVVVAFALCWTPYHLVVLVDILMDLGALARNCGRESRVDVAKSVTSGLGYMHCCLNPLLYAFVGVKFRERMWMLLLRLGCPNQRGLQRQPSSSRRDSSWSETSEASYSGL
As to `O=C(O)CC(c1ccc(Cl)c(Cl)c1)N(Cc1ccc(OCCN2C(=O)CCC2=O)c(F)c1)CC1CCCC1` (stereo not drawn) [Example 65, 3-(Cyclopentylmethyl-{4-[2-(2,5-dioxo-pyrrolidin-1-yl)-ethoxy]-3-fluoro-benzyl}-amino)-3-(3,4-dichloro-phenyl)-propionic acid], the IC50 was 186 nM. Consider `CCCN(Cc1ccc(OCCN2C(=O)CCC2=O)c(C)c1)C(c1ccc(Cl)cc1)C(C)C(=O)O` (stereo not drawn) [Example 194, 3-(4-Chloro-phenyl)-3-({4-[2-(2,5-dioxo-pyrrolidin-1-yl)-ethoxy]-3-methyl-benzyl}-propyl-amino)-2-methyl-propionic acid], for which the IC50 stood at 272 nM.

Regarding `Cc1cc(CN(CC2CCCCC2)[C@@H](CC(=O)O)c2ccc(Cl)cc2)ccc1OCCN1C(=O)CN(C)C1=O` [Example 30, (S)-3-(4-Chloro-phenyl)-3-(cyclohexylmethyl-{3-methyl-4-[2-(3-methyl-2,5-dioxo-imidazolidin-1-yl)-ethoxy]-benzyl}-amino)-propionic acid], the IC50 stood at 55 nM.

On to `CCCCN(Cc1ccc(OCCN2C(=O)CCC2=O)c(CC)c1)C(CC(=O)O)c1ccc(Cl)c(Cl)c1` (stereo not drawn) [Example 99, 3-(Butyl-{4-[2-(2,5-dioxo-pyrrolidin-1-yl)-ethoxy]-3-ethyl-benzyl}-amino)-3-(3,4-dichloro-phenyl)-propionic acid], for which the IC50 was 120 nM. For `CCN(Cc1ccc(OCCN2C(=O)CCC2=O)c(C)c1)C(c1ccc(Cl)cc1)C(C)C(=O)O` (stereo not drawn) [Example 175, 3-(4-Chloro-phenyl)-3-({4-[2-(2,5-dioxo-pyrrolidin-1-yl)-ethoxy]-3-methyl-benzyl}-ethyl-amino)-2-methyl-propionic acid], the IC50 turned out to be 266 nM. Regarding `CCN(Cc1ccc(OCCn2c(=O)ccn(C)c2=O)c(OC)c1)C(c1ccc(Cl)cc1)C(C)C(=O)O` (stereo not drawn) [Example 153, 3-(4-Chloro-phenyl)-3-(ethyl-{3-methoxy-4-[2-(3-methyl-2,6-dioxo-3,6-dihydro-2H-pyrimidin-1-yl)-ethoxy]-benzyl}-amino)-2-methyl-propionic acid], the IC50 is 635 nM. On to `Cc1cc(CN(CC2CC2)C(CC(=O)O)c2ccc3c(c2)CCO3)ccc1CCCN1C(=O)CCC1=O` (stereo not drawn) [Example 142, 3-(Cyclopropylmethyl-{4-[3-(2,5-dioxo-pyrrolidin-1-yl)-propyl]-3-methyl-benzyl}-amino)-3-(2,3-dihydro-benzofuran-5-yl)-propionic acid], for which the 50% inhibitory concentration (IC50) was found to be 211 nM.

For `CC(C)CN(Cc1ccc(OCCN2C(=O)CCC2=O)c(F)c1)C(CC(=O)O)c1ccc(Cl)cc1` (stereo not drawn) [Example 53, 3-(4-Chloro-phenyl)-3-({4-[2-(2,5-dioxo-pyrrolidin-1-yl)-ethoxy]-3-fluoro-benzyl}-isobutyl-amino)-propionic acid], the IC50 was 125 nM. As for `CCCN(Cc1ccc(OCCN2C(=O)CCC2=O)c(C)c1)C(CC(=O)O)c1ccc(Cl)c(F)c1` (stereo not drawn) [Example 75, 3-(4-Chloro-3-fluoro-phenyl)-3-({4-[2-(2,5-dioxo-pyrrolidin-1-yl)-ethoxy]-3-methyl-benzyl}-propyl-amino)-propionic acid], the figure is 25 nM; as for `O=C(O)CC(c1ccc(Cl)c(F)c1)N(Cc1ccc(OCCN2C(=O)CCC2=O)c(F)c1)CC1CCCCC1` (stereo not drawn) [Example 61, 3-(4-Chloro-3-fluoro-phenyl)-3-(cyclohexylmethyl-{4-[2-(2,5-dioxo-pyrrolidin-1-yl)-ethoxy]-3-fluoro-benzyl}-amino)-propionic acid], 334 nM. On to `CCCN(Cc1ccc(OCCN2C(=O)CCC2=O)c(Cl)c1)C(CC(=O)O)c1ccc(Cl)c(Cl)c1` (stereo not drawn) [Example 107, 3-({3-Chloro-4-[2-(2,5-dioxo-pyrrolidin-1-yl)-ethoxy]-benzyl}-propyl-amino)-3-(3,4-dichloro-phenyl)-propionic acid], for which the IC50 was found to be 570 nM. On to `CCc1cc(CN(CC2CCCC2)C(CC(=O)O)c2ccc(Cl)c(F)c2)ccc1OCCN1C(=O)CCC1=O` (stereo not drawn) [Example 94, 3-(4-Chloro-3-fluoro-phenyl)-3-(cyclopentylmethyl-{4-[2-(2,5-dioxo-pyrrolidin-1-yl)-ethoxy]-3-ethyl-benzyl}-amino)-propionic acid], for which the IC50 worked out at 71 nM. `CCCN(Cc1ccc(OCCN2C(=O)CCC2=O)c(Cl)c1)C(CC(=O)O)c1ccc(Cl)c(F)c1` (stereo not drawn) [Example 105, 3-({3-Chloro-4-[2-(2,5-dioxo-pyrrolidin-1-yl)-ethoxy]-benzyl}-propyl-amino)-3-(4-chloro-3-fluoro-phenyl)-propionic acid]: the IC50 is 211 nM. Take `COc1cc(CN(CC2CCCC2)C(CC(=O)O)c2ccc(Cl)c(Cl)c2)ccc1OCCN1C(=O)CCC1=O` (stereo not drawn) [Example 49, 3-(Cyclopentylmethyl-{4-[2-(2,5-dioxo-pyrrolidin-1-yl)-ethoxy]-3-methoxy-benzyl}-amino)-3-(3,4-dichloro-phenyl)-propionic acid]: the IC50 amounted to 61 nM. The same measure for `CCCCN(Cc1ccc(OCCN2C(=O)CCC2=O)c(C)c1)C(CC(=O)O)c1ccc(Cl)cc1Cl` (stereo not drawn) [Example 164, 3-(Butyl-{4-[2-(2,5-dioxo-pyrrolidin-1-yl)-ethoxy]-3-methyl-benzyl}-amino)-3-(2,4-dichloro-phenyl)-propionic acid]: 133 nM. As for `CCCCN(Cc1ccc(OCCN2C(=O)CCC2=O)c(F)c1)C(CC(=O)O)c1ccc(Cl)c(Cl)c1` (stereo not drawn) [Example 64, 3-(Butyl-{4-[2-(2,5-dioxo-pyrrolidin-1-yl)-ethoxy]-3-fluoro-benzyl}-amino)-3-(3,4-dichloro-phenyl)-propionic acid], the figure is 456 nM. Take `Cc1cc(CN(CC2CCCC2)C(CC(=O)O)c2ccc(Cl)c(Cl)c2)ccc1OCCN1C(=O)CCC1=O` (stereo not drawn) [Example 82, 3-(Cyclopentylmethyl-{4-[2-(2,5-dioxo-pyrrolidin-1-yl)-ethoxy]-3-methyl-benzyl}-amino)-3-(3,4-dichloro-phenyl)-propionic acid]: the IC50 was 119 nM. Regarding `COc1cc(CN(CC2CC2)C(CC(=O)O)c2ccc(Cl)c(Cl)c2)ccc1OCCN1C(=O)CCC1=O` (stereo not drawn) [Example 45, 3-(Cyclopropylmethyl-{4-[2-(2,5-dioxo-pyrrolidin-1-yl)-ethoxy]-3-methoxy-benzyl}-amino)-3-(3,4-dichloro-phenyl)-propionic acid], the IC50 came to 66 nM.

Regarding `CCCN(Cc1ccc(OCCN2C(=O)CCC2=O)c(OC)c1)C(CC(=O)O)c1ccc(Cl)c(Cl)c1` (stereo not drawn) [Example 46, 3-(3,4-Dichloro-phenyl)-3-({4-[2-(2,5-dioxo-pyrrolidin-1-yl)-ethoxy]-3-methoxy-benzyl}-propyl-amino)-propionic acid], the IC50 worked out at 118 nM. In the case of `CCCN(Cc1ccc(OCCn2c(=O)ccn(C)c2=O)c(C)c1)C(CC(=O)O)c1ccc2c(c1)CCO2` (stereo not drawn) [Example 155, 3-(2,3-Dihydro-benzofuran-5-yl)-3-({3-methyl-4-[2-(3-methyl-2,6-dioxo-3,6-dihydro-2H-pyrimidin-1-yl)-ethoxy]-benzyl}-propyl-amino)-propionic acid], the IC50 came out at 529 nM. Regarding `CCCCN(Cc1ccc(OCCN2C(=O)CCC2=O)c(CC)c1)C(CC(=O)O)c1ccc(Cl)c(F)c1` (stereo not drawn) [Example 93, 3-(Butyl-{4-[2-(2,5-dioxo-pyrrolidin-1-yl)-ethoxy]-3-ethyl-benzyl}-amino)-3-(4-chloro-3-fluoro-phenyl)-propionic acid], the IC50 is 79 nM.

The term IC50 denotes the concentration that gives 50% inhibition.
